Test [1] relates to HEK293. In words: Cytotoxicity against HEK293 cells expressing ABCG2-R-482 in presence of methotrexate. The class given is functional, cell-based. As to conditions: Homo sapiens.
Test [2] addresses T1, Broad substrate specificity ATP-binding cassette transporter ABCG2 (Homo sapiens, UniProt Q9UNQ0).
T1 sequence (Q9UNQ0 whole entry): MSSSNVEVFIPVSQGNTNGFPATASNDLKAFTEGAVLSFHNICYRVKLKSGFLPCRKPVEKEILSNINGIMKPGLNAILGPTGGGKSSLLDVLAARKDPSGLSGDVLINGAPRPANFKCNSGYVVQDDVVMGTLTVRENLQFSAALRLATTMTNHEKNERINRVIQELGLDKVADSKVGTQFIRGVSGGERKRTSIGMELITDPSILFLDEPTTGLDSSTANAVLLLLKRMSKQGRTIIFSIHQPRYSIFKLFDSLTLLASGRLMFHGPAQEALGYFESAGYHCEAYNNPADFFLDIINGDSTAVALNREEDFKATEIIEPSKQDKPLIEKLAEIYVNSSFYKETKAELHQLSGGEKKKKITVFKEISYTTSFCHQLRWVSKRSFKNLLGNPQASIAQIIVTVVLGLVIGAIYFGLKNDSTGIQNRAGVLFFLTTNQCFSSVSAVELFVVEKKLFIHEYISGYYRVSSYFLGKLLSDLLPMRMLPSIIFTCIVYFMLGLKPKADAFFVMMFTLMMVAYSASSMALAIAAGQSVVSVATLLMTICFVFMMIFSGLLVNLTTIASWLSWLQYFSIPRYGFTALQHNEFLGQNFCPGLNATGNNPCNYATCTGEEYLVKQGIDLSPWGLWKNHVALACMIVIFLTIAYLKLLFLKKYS
The test can be described thus: Inhibition of ABCG2 (unknown origin) in Sf9 membrane vesicles using [3H] methotrexate as substrate. The class given is cell membranes.

A short description of test [3]: Reversal of mitoxantrone resistance in human T8 cells. The class given is functional. As to conditions: T8 cell.
The test system of test [4] is MCF7. The test can be described thus: Cytotoxicity against human MCF7 cells assessed as increase in cytotoxic drug half inhibitory concentration. The class given is functional, cell-based.
For test [5], the target named is T1, Broad substrate specificity ATP-binding cassette transporter ABCG2. The test can be described thus: Inhibition of ABCG2 (unknown origin) overexpressing in dog MDCK-II-BCRP cells measured after 30 mins by flow cytometric analysis. It is filed as cell-based. On the technique in general: Flow cytometry measures light scatter and fluorescence of single cells or particles in a stream.

For test [6] the target is unchanged. In words: Inhibition of ABCG2 (unknown origin).
In test [7] the test system is HEK293. The test can be described thus: Cytotoxicity against HEK293 cells expressing ABCG2-482-T7 in presence of methotrexate. To be noted: Homo sapiens. The class given is functional, cell-based.
For test [8], the system named is HEK293. In words: Cytotoxicity against HEK293 cells expressing ABCG2-482-R in presence of methotrexate. It is filed as functional, cell-based. As to conditions: Homo sapiens.
The subject of test [9] is HEK293. In words: Cytotoxicity against HEK293 cells expressing ABCG2 in presence of methotrexate. It is filed as functional, cell-based. As to conditions: Homo sapiens.
Test [10] concerns S1-M1-80. The test can be described thus: Cytotoxicity against human S1M180 cells in presence of topotecan. It is filed as functional, cell-based.
Test [11] has as its system HEK293. In words: Cytotoxicity against HEK293 cells expressing ABCG2-R-482 wildtype assessed as decrease in mitoxantrone half inhibitory concentration. To be noted: Homo sapiens. It is filed as functional, cell-based.
Test [12] concerns HEK293. In words: Cytotoxicity against HEK293 cells expressing ABCG2-R-482 mutant assessed as decrease in mitoxantrone half inhibitory concentration. It is filed as functional, cell-based. To be noted: Homo sapiens.

Take `Nc1ncnc2c1c(-c1ccc(Oc3ccccc3)cc1)nn2C1CCCC1`: in [1], the IC50 – broadly, the point on the concentration scale where inhibition reaches its midpoint – amounted to 57 nM.
For `C=CC(O)C#CC#CC/C=C\CCCCCCC` (stereo not given), the half-inhibitory concentration (IC50) in test [2] stood at 41700 nM.
The compound `C=CC(O)C#CC#CC(O)/C=C\CCCCCCC` (stereo not given) returned an IC50 in [2] of 29700 nM.
In the case of `COc1ccc2c3c([nH]c2c1)[C@@H](CC(C)C)N1C(=O)[C@@H](CCC(=O)OC(C)(C)C)NC(=O)[C@@H]1C3`, the EC90 (commonly the point of the concentration-response curve where the effect stands at 90%) in test [3] is 23 nM.
Consider `CC(C)C[C@@H]1c2[nH]c3ccccc3c2C[C@H]2C(=O)N[C@H](CCCCNC(=O)OC(C)(C)C)C(=O)N12`, for which the EC90 in test [3] worked out at 190 nM.
Take `COc1ccc2c3c([nH]c2c1)[C@@H](C=C(C)C)N1C(=O)[C@@H]2CCCN2C(=O)[C@@H]1C3`: the 50% inhibitory concentration (IC50) in test [4] stood at 1000 nM.
For the compound `COc1ccc(-c2c3occc3c(OC[C@H]3OC3(C)C)c3ccc(=O)oc23)cc1OC`, the IC50 in [5] stood at 43100 nM.
With `CC(C)C[C@@H]1c2[nH]c3ccccc3c2C[C@H]2C(=O)N[C@H](CCC(=O)OC(C)(C)C)C(=O)N12`, the EC90 in test [3] came to 85 nM.
The compound `Cn1cc(-c2cc3c(N4CCN(c5ncc([C@@](C)(N)c6ccc(F)cc6)cn5)CC4)ncnn3c2)cn1` [AVAPRITINIB] came in with a concentration for half-maximal inhibition (IC50) in [6] of 1.5 nM.
For `COc1cc2nccc(Oc3ccc(NC(=O)C4(C(=O)Nc5ccc(F)cc5)CC4)cc3)c2cc1OC` [CABOZANTINIB], the 50% inhibitory concentration (IC50) in test [7] worked out at 34 nM; in [8], 27 nM.
`COc1cc2ncnc(Nc3ccc(F)c(Cl)c3)c2cc1NC(=O)/C=C/CN1CCCCC1` [DACOMITINIB ANHYDROUS]: the IC50 in test [9] was found to be 185 nM.
Turning to `COc1cc2c(cc1OC)CN(CCc1ccc(NC(=O)c3cccc4c(=O)c5cccc(OC)c5[nH]c34)cc1)CC2` [ELACRIDAR], in test [3], the EC90 turned out to be 51 nM.
Consider `Cc1cn(-c2cc(NC(=O)c3ccc(C)c(Nc4nccc(-c5cccnc5)n4)c3)cc(C(F)(F)F)c2)cn1` [NILOTINIB], for which the half-inhibitory concentration (IC50) in [7] came to 147 nM; in test [8], 128 nM.
With `C=CC(=O)Nc1cccc(Nc2nc(Nc3ccc(N4CCN(C(C)=O)CC4)cc3OC)ncc2C(F)(F)F)c1` [ROCILETINIB], the IC50 was 7.2 nM in test [7] and 11.9 nM in test [8].
Turning to `COc1cc2/c(=N/c3ccc(Br)cc3F)nc[nH]c2cc1OCC1CCN(C)CC1` [VANDETANIB], in test [10], the IC50 turned out to be 1240 nM.
For `Cc1[nH]c(/C=C2\C(=O)Nc3ccc(F)cc32)c(C)c1C(=O)N[C@H]1CCN(C(=O)N(C)C)C1` [VOROLANIB], the IC50 turned out to be 15.5 nM in test [11] and 58 nM in [12].

The record behind these values is ChEMBL document CHEMBL5214929, “Updated chemical scaffolds of ABCG2 inhibitors and their structure-inhibition relationships for future development” (Eur J Med Chem, 2022).
